Our source for the solubility in water and short term stability values is patent publication US20160303040A1, “INJECTABLE PHARMACEUTICAL COMPOSITIONS COMPRISING PROSTACYCLIN” (RIGSHOSPITALET, priority 2013, published 2016).

The conditions of series [1]: cited from earlier work.
A short description of series [2]: 10 days short term stability study on iloprost standards diluted with isotonic sodium chloride. To be noted: stored at 5° C., after dilution with isotonic sodium chloride solution. The series is classed as physicochemical. On the procedure: A: A concentration iloprost equal to 20 μg/ml (was used for the optimization of the HPLC procedure, UV 210 nm)
B: 0.9% sodium chloride in milliQ water (0.9 g NaCl in 100 ml water)
C: 100 μl of A and 900 μl of B: iloprost concentration equal to 2 μg/ml
A 10 days short term stability study was conducted on the standards The test solutions were prepared 11 May 2012 and analysed 11 May 2012, n=2, 15 May 2012, and 21 May 2012 and finally […]. Between the days of analysis the samples were stored at 5° C.

Take `CC#CCC(C)[C@H](O)/C=C/[C@@H]1[C@H]2C/C(=C/CCCC(=O)O)C[C@H]2C[C@H]1O` (stereo partly drawn) [Iloprost, 5-{(E)-(1S,5S,6R,7R)-7-hydroxy-6[(E)-(3S,4RS)-3-hydroxy-4-methyl-1-octen-6-inyl]-bi-cyclo[3.3.0]octan-3-ylidene}pentanoic acid]: the solubility in water entry in series [1] is listed as “very slightly soluble”. The short term stability result in series [2] is “No indication on major instability”.
